Structures can show the parent of a compound that is named as a salt.
system: clot lysis (fibrinolysis) in diluted human citrated plasma, tPA-induced; assay: Plasma-based clot lysis assay (5%); assay type: biochemical; conditions: human citrated platelet-poor plasma 5%, fibrinogen 3 μM, CaCl2 10 mM, tPA 0.2 nM, 37° C., OD at 405 nm
Experimental: B-2. Plasma-based Clot Lysis Assay (5%)
The clot-lysis test system configures the kinetics of clot formation and degradation in vitro and allows quantifying modulation of the process by selected test compounds.
The test compounds were dissolved in 1% acetic acid and further complemented with an equal volume of DMSO. The resulting stock solutions were serially diluted in 0.5% acetic acid/50% DMSO. 1 μL aliquots of these solutions were placed into 384 well microplates (Greiner, black, transparent bottom), followed by 30 μL of diluted human citrated plasma (platelet-poor, final concentration: 5%; supplemented with fibrinogen, final concentration: 3 μM; dilution buffer: 20 mM HEPES, 150 mM NaCl, 0.01% Brij (pH 7)). The reactions were started by addition of 20 μL of CaCl2 (final concentration: 10 mM), and tPA (tissue plasminogen activator, final concentration: 0.2 nM) in dilution buffer, followed by an additional volume of 20 μL dilution buffer for improved mixing. The reactions were incubated at 37° C. […] IC50 values were determined by comparing the resulting time courses with the time course of a blank control reaction.

Row | IC50 [nM] | SMILES
1 | 27 | Cc1ccc(-c2noc(-c3cnn4c(C5CCNCC5)cc(=O)[nH]c34)n2)cc1 [Example 39, 3-[3-(4-Methylphenyl)-1,2,4-oxadiazol-5-yl]-7-(piperidin-4-yl)pyrazolo[1,5-a]pyrimidin-5 (4H)-hydrochloride]
2 | 19 | NC(=O)c1c(-c2ccccc2)nn2c(C3CCNCC3)cc(=O)[nH]c12 [Example 41, 5-Oxo-2-phenyl-7-(piperidin-4-yl)-4,5-dihydropyrazolo[1,5-a]pyrimidine-3-carboxamide trifluoroacetate]
3 | 27 | O=C(c1c(-c2ccccc2)nn2c(C3CCNCC3)cc(=O)[nH]c12)N1CCOCC1 [Example 43, 3-(Morpholin-4-ylcarbonyl)-2-phenyl-7-(piperidin-4-yl)pyrazolo[1,5-a]pyrimidin-5(4H)-one trifluoroacetate]
4 | 23 | CC(C)CNC(=O)c1c(-c2ccccc2)nn2c(C3CCNCC3)cc(=O)[nH]c12 [Example 44, trifluoroacetate]
5 | 69 | O=C(O)c1cc2[nH]c(=O)cc(C3CCNCC3)n2n1 [Example 46, 5-Oxo-7-(piperidin-4-yl)-4,5-dihydropyrazolo[1,5-a]pyrimidine-2-carboxylic acid hydrochloride]
6 | 13 | N#Cc1ccc(-c2cnn3c(C4CCNCC4)cc(=O)[nH]c23)cc1 [Example 47, 4-[5-Oxo-7-(piperidin-4-yl)-4,5-dihydropyrazolo[1,5-a]pyrimidin-3-yl]benzonitrile trifluoroacetate]
7 | 14 | O=c1cc(C2CCNCC2)n2ncc(-c3cccc(Cl)c3)c2[nH]1 [Example 48, 3-(3-Chlorophenyl)-7-(piperidin-4-yl)pyrazolo[1,5-a]pyrimidin-5(4H)-one hydrochloride]
8 | 16 | N#Cc1ccccc1-c1cnn2c(C3CCNCC3)cc(=O)[nH]c12 [Example 49, 2-[5-Oxo-7-(piperidin-4-yl)-4,5-dihydropyrazolo[1,5-a]pyrimidin-3-yl]benzonitrile trifluoroacetate]
9 | 24 | N#Cc1cccc(-c2cnn3c(C4CCNCC4)cc(=O)[nH]c23)c1 [Example 50, 3-[5-Oxo-7-(piperidin-4-yl)-4,5-dihydropyrazolo[1,5-a]pyrimidin-3-yl]benzonitrile trifluoroacetate]
10 | 16 | C[C@H]1C[C@H](c2cc(=O)[nH]c3c(C(N)=O)cnn23)CCN1 [Example 51, (−)-trans-7-(2-Methylpiperidin-4-yl)-5-oxo-4,5-dihydropyrazolo[1,5-a]pyrimidine-3-carboxamide trifluoroacetate]
11 | 15 | COc1ccc(-c2cnn3c(C4CCNCC4)cc(=O)[nH]c23)cc1 [Example 53, 3-(4-Methoxyphenyl)-7-(piperidin-4-yl)pyrazolo[1,5-a]pyrimidin-5(4H)-one hydrochloride]
12 | 18 | COc1ccc(-c2cnn3c(C4CCNCC4)cc(=O)[nH]c23)cc1OC [Example 54, 3-(3,4-Dimethoxyphenyl)-7-(piperidin-4-yl)pyrazolo[1,5-a]pyrimidin-5(4H)-one hydrochloride]
13 | 19 | CS(=O)(=O)c1ccc(-c2cnn3c(C4CCNCC4)cc(=O)[nH]c23)cc1 [Example 55, 3-[4-(Methylsulfonyl)phenyl]-7-(piperidin-4-yl)pyrazolo[1,5-a]pyrimidin-5(4H)-one hydrochloride]
14 | 770 | O=c1cc(C2CCNCC2)n2ncc(-c3ccccc3F)c2[nH]1 [Example 56, 3-(2-Fluorophenyl)-7-(piperidin-4-yl)pyrazolo[1,5-a]pyrimidin-5(4H)-one hydrochloride]
15 | 21 | O=c1cc(C2CCNCC2)n2ncc(-c3ccc(C(F)(F)F)cc3)c2[nH]1 [Example 57, 7-(Piperidin-4-yl)-3-[4-(trifluoromethyl)phenyl]pyrazolo[1,5-a]pyrimidin-5(4H)-one hydrochloride]
16 | 16 | O=c1cc(C2CCNCC2)n2ncc(-c3cccc(C(F)(F)F)c3)c2[nH]1 [Example 58, 7-(Piperidin-4-yl)-3-[3-(trifluoromethyl)phenyl]pyrazolo[1,5-a]pyrimidin-5(4H)-one hydrochloride]
17 | 15 | O=c1cc(C2CCNCC2)n2ncc(-c3cccs3)c2[nH]1 [Example 59, 7-(Piperidin-4-yl)-3-(2-thienyl)pyrazolo[1,5-a]pyrimidin-5(4H)-one hydrochloride]
18 | 13 | COc1cccc(-c2cnn3c(C4CCNCC4)cc(=O)[nH]c23)c1 [Example 60, 3-(3-Methoxyphenyl)-7-(piperidin-4-yl)pyrazolo[1,5-a]pyrimidin-5(4H)-one hydrochloride]

Row | IC50 [nM] | SMILES
19 | 34 | O=c1cc(C2CCNCC2)n2ncc(-c3ccc4c(c3)OCCO4)c2[nH]1 [Example 61, 3-(2,3-Dihydro-1,4-benzodioxin-6-yl)-7-(piperidin-4-yl)pyrazolo[1,5-a]pyrimidin-5 (4H)-one hydrochloride]
20 | 34 | COc1ccc(OC)c(-c2cnn3c(C4CCNCC4)cc(=O)[nH]c23)c1 [Example 62, 3-(2,5-Dimethoxyphenyl)-7-(piperidin-4-yl)pyrazolo[1,5-a]pyrimidin-5(4H)-one hydrochloride]
21 | 40 | O=c1cc(C2CCNCC2)n2ncc(-c3ccccc3C(F)(F)F)c2[nH]1 [Example 63, 7-(Piperidin-4-yl)-3-[2-(trifluoromethyl)phenyl]pyrazolo[1,5-a]pyrimidin-5(4H)-one hydrochloride]
22 | 11 | N#Cc1csc(-c2cnn3c(C4CCNCC4)cc(=O)[nH]c23)c1 [Example 68, 5-[5-Oxo-7-(piperidin-4-yl)-4,5-dihydropyrazolo[1,5-a]pyrimidin-3-yl]thiophene-3-carbonitrile trifluoroacetate]
23 | 19 | COc1ccc(-c2cnn3c(C4CCNCC4)cc(=O)[nH]c23)cn1 [Example 69, 3-(6-Methoxypyridin-3-yl)-7-(piperidin-4-yl)pyrazolo[1,5-a]pyrimidin-5 (4H)-one]
24 | 14 | O=c1cc(C2CCNCC2)n2ncc(-c3cccc(OC(F)(F)F)c3)c2[nH]1 [Example 70, 7-(Piperidin-4-yl)-3-[3-(trifluoromethoxy)phenyl]pyrazolo[1,5-a]pyrimidin-5(4H)-one hydrochloride]
25 | 34 | O=c1cc(C2CCNCC2)n2ncc(-c3ccccc3OC(F)(F)F)c2[nH]1 [Example 71, 7-(Piperidin-4-yl)-3-[2-(trifluoromethoxy)phenyl]pyrazolo[1,5-a]pyrimidin-5(4H)-one hydrochloride]
26 | 64 | O=c1cc(C2CCNCC2)n2ncc(-c3ccc(F)c(Cl)c3)c2[nH]1 [Example 72, 3-(3-Chloro-4-fluorophenyl)-7-(piperidin-4-yl)pyrazolo[1,5-a]pyrimidin-5(4H)-one hydrochloride]
27 | 18 | O=c1cc(C2CCNCC2)n2ncc(S(=O)(=O)c3ccc(Cl)cc3Cl)c2[nH]1 [Example 74, 3-[(2,4-Dichlorophenyl)sulfonyl]-7-(piperidin-4-yl)pyrazolo[1,5-a]pyrimidin-5(4H)-one hydrochloride]
28 | 40 | O=C(Nc1cccc2ccccc12)c1cnn2c(C3CCNCC3)cc(=O)[nH]c12 [Example 75, N-(naphthalen-1-yl)-5-oxo-7-(piperidin-4-yl)-4,5-dihydropyrazolo[1,5-a]pyrimidine-3-carboxamide]
29 | 29 | Cc1ccc(F)cc1NC(=O)c1cnn2c(C3CCNCC3)cc(=O)[nH]c12 [Example 76, N-(5-fluoro-2-methylphenyl)-5-oxo-7-(piperidin-4-yl)-4,5-dihydropyrazolo[1,5-a]pyrimidine-3-carboxamide]
30 | 62 | O=C(NCC1CCCC1)c1cnn2c(C3CCNCC3)cc(=O)[nH]c12 [Example 77]
31 | 48 | CN(CC1CC1)C(=O)c1cnn2c(C3CCNCC3)cc(=O)[nH]c12 [Example 78, N-(cyclopropylmethyl)-N-methyl-5-oxo-7-(piperidin-4-yl)-4,5-dihydropyrazolo[1,5-a]pyrimidine-3-carboxamide]
32 | 33 | CCc1cccc(NC(=O)c2cnn3c(C4CCNCC4)cc(=O)[nH]c23)c1 [Example 80, N-(3-ethylphenyl)-5-oxo-7-(piperidin-4-yl)-4,5-dihydropyrazolo[1,5-a]pyrimidine-3-carboxamide]
33 | 81 | Cc1cc(F)ccc1NC(=O)c1cnn2c(C3CCNCC3)cc(=O)[nH]c12 [Example 81, N-(4-fluoro-2-methylphenyl)-5-oxo-7-(piperidin-4-yl)-4,5-dihydropyrazolo[1,5-a]pyrimidine-3-carboxamide]
34 | 32 | Cc1ccc(NC(=O)c2cnn3c(C4CCNCC4)cc(=O)[nH]c23)cc1C [Example 85, N-(3,4-dimethylphenyl)-5-oxo-7-(piperidin-4-yl)-4,5-dihydropyrazolo[1,5-a]pyrimidine-3-carboxamide hydrochloride]
35 | 17 | Cc1ccccc1CNC(=O)c1cnn2c(C3CCNCC3)cc(=O)[nH]c12 [Example 86, N-(2-methylbenzyl)-5-oxo-7-(piperidin-4-yl)-4,5-dihydropyrazolo[1,5-a]pyrimidine-3-carboxamide hydrochloride]

Row | SMILES | IC50 [nM]
36 | C[C@H]1C[C@H](c2cc(=O)[nH]c3c(Cl)cnn23)CCN1 [Example 40, (−)-trans-3-Chloro-7-(2-methylpiperidin-4-yl)pyrazolo[1,5-a]pyrimidin-5(4H)-one hydrochloride] | 14
37 | C[C@H]1C[C@H](c2cc(=O)[nH]c3c(C#N)cnn23)CCN1 [Example 65, (−)-trans-7-(2-Methylpiperidin-4-yl)-5-oxo-4,5-dihydropyrazolo[1,5-a]pyrimidine-3-carbonitrile trifluoroacetate] | 12
